Assay results: patent US12564605B2, “Plant based compositions and methods for the delivery of magnesium” (Standard Process, Inc., priority 2018, dated 2026)

Test system: recognition learning and memory retrieval
Assay: Novel Object Recognition (NOR) test
Format: in vivo, Sprague Dawley rats
Conditions: rats on low Mg diet; in comparison to Magtein and placebo control; FIG. 7
Text: Male Sprague Dawley rats (150-175 grams on arrival) from Envigo (Indianapolis, IN) were used in the study. Upon receipt, rats were assigned unique identification numbers and were group housed with 2-3 rats per cage in ventilated cages with micro-isolator filter tops. All rats were examined and weighed prior to initiation of the study to assure adequate health and suitability. During the course of the study, 12/12 light/dark cycles will be maintained. The room temperature will be maintained between 20° C. and 23° C. with a relative humidity maintained around 50%.
On the day of arrival to the research facility, animals (except for the normal Mg diet group, N=15) were placed on LabDiet 5008, a diet that is deficient in Mg containing 0.20% magnesium. […]
The Novel Object Recognition (NOR) is a test of recognition learning and memory retrieval, which takes advantage of the spontaneous preference of rodents to investigate a novel object compared to a familiar one. […] All training and testing trials were video-taped and scored by an observer blind to treatments.
On days 1 and 2, rats were allowed to freely explore the arena (no objects inside) for a 5-minute habituation period. […] One hour later, the rats were again placed into the test arena in the presence of one familiar object and one novel object (Object A and Object B), and the time spent exploring both objects is recorded. […]

## O=C([O-])CC(O)(CC(=O)[O-])C(=O)[O-].O=C([O-])CC(O)(CC(=O)[O-])C(=O)[O-].[Mg+2].[Mg+2].[Mg+2] [Mg citrate]
  Cognitive function (Novel Object Recognition test, Recognition Index): trend toward improvement in cognitive function
